What was measured:
Type in all cases: in vivo
ICR mice = test: Acute toxicity test of single gavage in mice (Biological Example 9); conditions: single gavage 2000 mg/Kg; for Clinical observation: appearance, breath, behavior, reflex and defecation / Dissection and general observation of each organ / Organ indexes / Death of animals: ICR mice; for Clinical observation: appearance, breath, behavior, reflex and defecation: male and female; for Death of animals: 3 male and 3 female, until the end of the test
Description: 30 healthy ICR mice of SPF grade were randomly divided into 5 groups according to the gender segment, in which 15 mice were male and 15 mice were female. There were 3 mice/gender/group. There were 6 mice in each group, in which 3 mice were male and 3 mice were female.
Single administration by gavage was carried out. The symptoms and responses of all the animals were observed after the administration and were recorded faithfully. The test was observed continuously for 15 days. The symptoms of the animals were recorded. After the test, the tissues and organs of all the animals were weighed, observed and recorded. The specimens were kept.
Body weight, appearance, breath, behavior, reflex and defecation.

[1] = system: Phorbol ester (TPA)-induced ear swelling in mice; test: Inhibition of phorbol ester (TPA)-induced ear swelling in mice (Biological Example 5); conditions: ICR mice, 5 hours after TPA modeling; for Ear Swelling Rate / Inhibitory Rate of Ear Swelling Degree: 2 mg/mouse on right ear; for Ear Swelling Rate: (right−left)/left ear weight; for Inhibitory Rate of Ear Swelling Degree: vs model and blank control; for Ear Swelling Degree: 50 mg/mL in acetone, 40 μL in 2 administrations (2 mg/mouse)
Description: (§1) 72 male ICR mice were selected and divided into 9 groups. There were 8 mice in each group.
(§2) Before the test, the animals were grouped and the hair around the right ear of the mice was removed.
(§3) 20 μL of respective drug was applied to the animals in each test group (a blank solvent was applied to the model control group). Modeling and induction were carried out after 1 h 10 min. Except for the blank group, 20 μL of TPA at a concentration of 125 μg/mL were applied to the right ears of the animals for induction. After induction for 10 minutes, 20 μL of respective drug were applied to the right ears of the animals in each test group (a blank solvent was applied to the model control group).
After modeling for 5 hours, ear pieces of both sides on the same location of animals in each group were taken with a punch and weighed to calculate the ear swelling degree, ear swelling rate and inhibitory rate.
(§4) The ear swelling degree and ear swelling rate after modeling and administration for 5 hours were analyzed and tested with One-Way ANOVA multiple-group test index in SPSS17.0. P<0.05 indicated there were statistical differences. Ear swelling degree (mg)=right ear weight (mg)−left ear weight (mg); Ear swelling rate (%)=(right ear weight−left ear weight)/left ear weight×100%; Inhibitory rate of ear swelling degree (%)=1−(ear swelling degree of drug administration group−ear swelling degree of blank control group)/(ear swelling degree of model control group−ear swelling degree of blank control group)×100%.

[2] = system: DNCB-induced atopic dermatitis in Balb/c mice; test: Efficacy evaluation test of DNCB-induced atopic dermatitis in Balb/c mice model (Biological Example 1); conditions: BID × 10
Description: 60 healthy male SPF Balb/c mice, each of which the body weight was 19-21 g, were randomly divided into 6 groups by body weight. There were 10 mice in each group.
(§5) Before the test, the hair around the right ear of the mouse was removed to reduce the interference in the drug adhesion to the hair.
(§6) The start of the test was recorded as Day 1. The specific time for measuring ear thickness was slightly adjusted based on FIG. 1. After the end of the 18th day of the test, blood was taken from each animal to detect the concentration of immunoglobulin (IgE) in the serum (in accordance with the kit instructions). Both ears of the animal were cut off. Ear pieces were cut by an 8 mm punch at the fixed position of the ears and weighed. Differences in the swelling degrees of two ears were calculated.
The changes in mouse ear thickness and the ear weights of the same area and the IgE concentrations in the serum among different groups on the 18th day were analyzed and compared statistically with One-Way Anova in SPSS 17, respectively. The G test method was used to delete outliers. p<0.05 indicated there were statistical differences. Ear swelling degree (mg)=right ear weight (mg)−left ear weight (mg); Ear thickness change (mm)=right ear thickness (mm)−left ear thickness (mm); Inhibitory rate of ear swelling degree (%)=1−(ear swelling degree of drug administration group−ear swelling degree of blank control group)/(ear swelling degree of model control group−ear swelling degree of blank control group)×100%; Inhibitory rate of ear thickness change (%)=1−(ear thickness change of drug administration group−ear thickness change of blank control group)/(ear thickness change of model control group−ear thickness change of blank control group)×100%; Inhibitory rate of IgE (%)=1−(IgE concentration in administration group−IgE concentration in blank control group)/(IgE concentration in model control group−IgE concentration in blank control group)×100%.

[3] = system: Phorbol ester (TPA)-induced ear swelling in mice; test: Inhibition of phorbol ester (TPA)-induced ear swelling in mice (Biological Example 6); conditions: ICR mice, 5 hours after TPA modeling; for Ear Swelling Rate / Inhibitory Rate of Ear Swelling Degree: 2 mg/mouse on right ear; for Ear Swelling Rate: (right−left)/left ear weight; for Inhibitory Rate of Ear Swelling Degree: vs model and blank control; for Ear Swelling Degree: 50 mg/mL in acetone, 40 μL in 2 administrations (2 mg/mouse)
Description: as §1, §2, §3
After modeling for 5 hours, ear pieces of both sides at the same location of animals in each group were taken with a punch and weighed to calculate the ear swelling degree, ear swelling rate and inhibitory rate.
as §4, with “P<0.05 indicated there were statistical differences.” left out, “(%)=1−(swelling” for “(%)=1−(ear swelling”, “group−swelling” for “group−ear swelling”, “group)/(swelling” for “group)/(ear swelling”

[4] = system: DNCB-induced atopic dermatitis in Balb/c mice; test: Efficacy evaluation test of DNCB-induced atopic dermatitis in Balb/c mice model (Biological Example 2); conditions: BID × 10; for Inhibitory Rate of Ear Swelling / Weight Changes of Animals, Day 10 / Weight Changes of Animals, Day 17 / Weight Changes of Animals, Day 18 / Ear Swelling Degree / IgE Concentration / Inhibitory Rate of IgE Concentration: 1 mg/mouse on ear; for Inhibitory Rate of Ear Swelling / Ear Swelling Degree / IgE Concentration / Inhibitory Rate of IgE Concentration: 18th day; for Inhibitory Rate of Ear Swelling / Inhibitory Rate of IgE Concentration: vs model and blank control; for Weight Changes of Animals, Day 1 / Weight Changes of Animals, Day 10 / Weight Changes of Animals, Day 17 / Weight Changes of Animals, Day 18: Balb/c mice, Mean ± S.D.; for Weight Changes of Animals, Day 1: 1 mg/mouse (50 mg/mL, 20 μL) on ear; for Ear Swelling Degree: right minus left ear piece weight; for IgE Concentration / Inhibitory Rate of IgE Concentration: serum
Description: 70 healthy male SPF Balb/c mice, each of which the weight was 19-21 g, were randomly divided into 7 groups by body weight. There were 10 mice in each group.
as §5
as §6, with “Day” for “Day 1. The specific time for measuring ear thickness was slightly adjusted based on FIG.”
The IgE concentrations in the serum of different groups on the 18th day were analyzed and compared statistically with One-Way Anova in SPSS 17, respectively. The G test method was used to delete outliers. p<0.05 indicated there were statistical differences. Ear swelling degree (mg)=right ear weight (mg)−left ear weight (mg); Inhibitory rate of ear swelling degree (%)=1−(ear swelling degree of drug administration group−ear swelling degree of blank control group)/(ear swelling degree of model control group−ear swelling degree of blank control group)×100%; Inhibitory rate of IgE (%)=1−(IgE concentration in administration group−IgE concentration in blank control group)/(IgE concentration in model control group−IgE concentration in blank control group)×100%.

[5] = female ICR mice, observed 15 days
[6] = Balb/c mice, 1 mg/mouse on ear, Day 10, Mean ± S.D.
[7] = Balb/c mice, 1 mg/mouse on ear, Day 17, Mean ± S.D.
[8] = Balb/c mice, 1 mg/mouse on ear, Day 18, Mean ± S.D.
[9] = female ICR mice, end of the test
[10] = surviving male ICR mice, end of the experiment

Row | SMILES | Clinical observation, female animals (ICR mice; [5]) | Ear Swelling Rate [1] [%] | Inhibitory Rate of Ear Swelling Degree [1] [%] | Ear Swelling Degree [1] [mg] | Clinical observation: appearance, breath, behavior, reflex and defecation (ICR mice; observed 15 days) | Dissection and general observation of each organ (ICR mice; end of the test) | Organ indexes (ICR mice; end of the test) | Ear Swelling Rate [3] [%] | Inhibitory Rate of Ear Swelling Degree [3] [%] | Ear Swelling Degree [3] [mg] | Inhibitory Rate of Ear Swelling [4] [%] | Weight Changes of Animals, Day 1 [4] [g] | Weight Changes of Animals, Day 10 [4] [g] | Weight Changes of Animals, Day 17 [4] [g] | Weight Changes of Animals, Day 18 [4] [g] | Ear Swelling Degree [4] [mg] | IgE Concentration [4] [ng/mL] | Inhibitory Rate of IgE Concentration [4] [%] | Death of animals (ICR mice) | further results
1 | CCOc1ccc(C(CC(=O)OC)N2C(=O)c3cccc(NC(C)=O)c3C2=O)cc1OCC (stereo not drawn) [Example 4, methyl 3-(4-acetamido-1,3-dioxoisoindolin-2-yl)-3-(3,4-diethoxyphenyl)propionate] | After administration, no abnormalities of female animals | 34.3 ± 18.2 | 88.8 | 4.8 ± 2.1 | – | – | – | – | – | – | – | – | – | – | – | – | – | – | – | Clinical observation, male animals (ICR mice; male ICR mice, observed 15 days): The male animals had reduced activity and recovered after
2 | CCCOC(=O)CC(c1ccc(OC)c(OCC)c1)N1C(=O)c2cccc(NC(C)=O)c2C1=O (stereo not drawn) [Example 11, propyl 3-(4-acetamido-1,3-dioxoisoindolin-2-yl)-3-(3-ethoxy-4-methoxyphenyl)propionate] | – | 46.3 ± 35.7 | 81.7 | 6.5 ± 5.0 | No obvious abnormalities of appearance, breath, behavior, | No obvious abnormalities related to the compounds were | No obvious abnormalities of organ indexes were observed. | – | – | – | – | – | – | – | – | – | – | – | – | Inhibitory Rate of Ear Swelling Degree ([2]; 1 mg/mouse on ear, 18th day, vs model and blank control): 49.2%; Weight Changes of Animals, Day 1 ([2]; Balb/c mice, 1 mg/mouse (50 mg/mL, 20 μL) on ear, Day 1, Mean ± S.D.): 20.3 ± 1.3 g; Inhibitory Rate of Ear Thickness ([2]; Balb/c mice, 1 mg/mouse on ear, 18th day, vs model and blank control): 51.5%; Ear Thickness Change, Day 1 ([2]; Balb/c mice, 1 mg/mouse on ear, Day 1, Mean ± S.D.): 0.22 ± 0.01 mm; Ear Thickness Change, Day 10 [2, 6]: 0.33 ± 0.09 mm; Weight Changes of Animals, Day 10 [2, 6]: 21.6 ± 1.1 g; Ear Thickness Change, Day 17 [2, 7]: 0.35 ± 0.04 mm; Weight Changes of Animals, Day 17 [2, 7]: 21.2 ± 1.2 g; Ear Thickness Change, Day 18 [2, 8]: 0.48 ± 0.06 mm; Weight Changes of Animals, Day 18 [2, 8]: 21.1 ± 1.3 g; Ear Thickness ([2]; Table 4, Balb/c mice, 1 mg/mouse on ear, 18th day): 0.48 ± 0.06 mm; Ear Swelling Degree ([2]; right minus left ear piece weight (8 mm punch), 1 mg/mouse on ear, 18th day): 12.8 ± 4.9 mg; IgE Concentration ([2]; serum, 1 mg/mouse on ear, 18th day): 5854.5 ± 2631.7 ng/mL; Inhibitory Rate of IgE Concentration ([2]; serum, 1 mg/mouse on ear, 18th day, vs model and blank control): 36.5%
3 | CCCOc1ccc(C(CC(=O)OC)N2C(=O)c3cccc(NC(C)=O)c3C2=O)cc1OCC (stereo not drawn) [Example 31, methyl 3-(4-acetamido-1,3-dioxoisoindolin-2-yl)-3-(3-ethoxy-4-propoxyphenyl)propionate] | – | – | – | – | No obvious abnormalities of appearance, breath, behavior, | No obvious abnormalities related to the compounds were | No obvious abnormalities of organ indexes were observed. | 34.3 ± 14.9 | 87.6 | 4.9 ± 2.0 | – | – | – | – | – | – | – | – | – | –
4 | COC(=O)CC(c1ccc(OC)c(OC(C)C)c1)N1C(=O)c2cccc(NC(C)=O)c2C1=O (stereo not drawn) [Example 46, methyl 3-(4-acetamido-1,3-dioxoisoindolin-2-yl)-3-(3-isopropoxy-4-methoxyphenyl)propionate] | – | – | – | – | – | – | – | 44.9 ± 35.5 | 82.0 | 6.4 ± 5.3 | 36.2 | 21.6 ± 0.7 | 22.6 ± 0.6 | 23.0 ± 0.7 | 23.1 ± 0.7 | 18.6 ± 3.9 | 4429.8 ± 1713.9 | 51.7 | – | –
5 | CCOC(=O)C[C@@H](c1ccc(OC)c(OCC)c1)N1C(=O)c2cccc(NC(C)=O)c2C1=O [Example 52, ethyl (S)-3-(4-acetamido-1,3-dioxoisoindolin-2-yl)-3-(3-ethoxy-4-methoxyphenyl)propionate] | No obvious abnormalities in female animals were observed | – | – | – | – | – | – | – | – | – | 60.1 | 21.8 ± 0.5 | 22.6 ± 0.9 | 24.3 ± 5.6 | 24.2 ± 6.0 | 12.0 ± 5.4 | 4141.5 ± 2315.0 | 55.5 | 1 male animal died in the second day of the test. It was | Gross anatomy, female animals (ICR mice; [9]): until the end of the test. No abnormalities of gross anatomy; Organ indexes, female animals (ICR mice; [9]): until the end of the test. No abnormalities of gross anatomy; Gross anatomy, male animals (ICR mice; [10]): observed until the end of the experiment. No abnormalities; Organ indexes, male animals (ICR mice; [10]): observed until the end of the experiment. No abnormalities
6 | COC(=O)C[C@@H](c1ccc(OC)c(OC(C)C)c1)N1C(=O)c2cccc(NC(C)=O)c2C1=O [Example 54, methyl (S)-3-(4-acetamido-1,3-dioxoisoindolin-2-yl)-3-(3-isopropoxy-4-methoxyphenyl)propionate] | – | – | – | – | The main symptom after administration was reduced | – | – | – | – | – | 43.1 | 21.6 ± 0.6 | 22.6 ± 0.8 | 23.3 ± 1.2 | 23.1 ± 1.2 | 16.7 ± 3.0 | 4873.7 ± 1356.2 | 45.9 | activity. No death or abnormality of animals was observed | –
